# In patent publication US20240050428A1 (Cullgen (Shanghai), Inc., priority 2020, published 2024):
# Like-named read-outs stand apart in the source and are kept apart here.
# Columns and labels:
# [1] = test system: MV4;11 cells; assay: Cell viability assay (CellTiter-Glo) in MV4;11 cells, alone or with gilteritinib; assay type: cell-based; settings: Homo sapiens, MV4-11, 72 h, read-out: MV4
# [2] = test system: MOLM-13 cells; assay: Cell viability assay (CellTiter-Glo) in MOLM-13 cells, alone or with gilteritinib; assay type: cell-based; settings: Homo sapiens, MOLM-13, 72 h
# [3] = MV4;11 cells, compound alone (without gilteritinib), three days, CellTiter-Glo, 11 IC50
# [4] = MV4;11 cells, with gilteritinib 10 nM, three days, CellTiter-Glo, 11 IC50 gilteritinib
# [5] = MOLM-13 cells, compound alone (without gilteritinib), three days, CellTiter-Glo, read-out: MOLM-13 IC50
# [6] = MOLM-13 cells, with gilteritinib 20 nM, three days, CellTiter-Glo, read-out: MOLM-13 IC50 gilteritinib
Structure (SMILES),"IC50 [1, 3]","IC50 [1, 4]","IC50 [2, 5]","IC50 [2, 6]",IC50 ([1]; 11 IC50),IC50 ([1]; 11 IC50 gilteritinib),IC50 ([2]; read-out: MOLM-13 IC50),IC50 ([2]; read-out: MOLM-13 IC50 gilteritinib)
"O=C1CCC(N2Cc3c(Nc4ccnc(Nc5cccc(N6CCC(n7cc(-c8cnc9ccccc9n8)cn7)CC6)c5)n4)cccc3C2=O)C(=O)N1 (centres unmarked) [GS-025, 3-(1-Oxo-4-((2-((3-(4-(4-(quinoxalin-2-yl)-1H-pyrazol-1-yl)piperidin-1-yl)phenyl)amino)pyrimidin-4-yl)amino)isoindolin-2-yl)piperidine-2,6-dione]",10 to 100 nM,< 10 nM,< 10 nM,< 10 nM,,,,
"O=C1CCC(N2Cc3c(Nc4ccnc(Nc5ccc(N6CCC(n7cc(-c8cnc9cccc(Br)c9n8)cn7)CC6)cc5)n4)cccc3C2=O)C(=O)N1 (centres unmarked) [GS-026, 3-(4-((2-((4-(4-(4-(8-Bromoquinoxalin-2-yl)-1H-pyrazol-1-yl)piperidin-1-yl)phenyl)amino)pyrimidin-4-yl)amino)-1-oxoisoindolin-2-yl)piperidine-2,6-dione]",> 1000 nM,> 1000 nM,> 1000 nM,> 1000 nM,,,,
"O=C1CCC(N2Cc3c(Nc4ccnc(Nc5ccc(N6CCC(n7cc(-c8cnc9ccccc9n8)cn7)CC6)cc5)n4)cccc3C2=O)C(=O)N1 (centres unmarked) [GS-027, 3-(1-Oxo-4-((2-((4-(4-(4-(quinoxalin-2-yl)-1H-pyrazol-1-yl)piperidin-1-yl)phenyl)amino)pyrimidin-4-yl)amino)isoindolin-2-yl)piperidine-2,6-dione]",> 1000 nM,> 1000 nM,100 to 1000 nM,> 1000 nM,,,,
"O=C1CCC(N2Cc3c(Nc4ccnc(Nc5cccc(CN6CCC(n7cc(-c8cnc9cccc(Br)c9n8)cn7)CC6)c5)n4)cccc3C2=O)C(=O)N1 (centres unmarked) [GS-028, 3-(4-((2-((3-((4-(4-(8-Bromoquinoxalin-2-yl)-1H-pyrazol-1-yl)piperidin-1-yl)methyl)phenyl)amino)pyrimidin-4-yl)amino)-1-oxoisoindolin-2-yl)piperidine-2,6-dione]",10 to 100 nM,10 to 100 nM,100 to 1000 nM,10 to 100 nM,,,,
"O=C1CCC(N2Cc3c(Nc4ccnc(Nc5cccc(CN6CCC(n7cc(-c8cnc9ccccc9n8)cn7)CC6)c5)n4)cccc3C2=O)C(=O)N1 (centres unmarked) [GS-029, 3-(1-Oxo-4-((2-((3-((4-(4-(quinoxalin-2-yl)-1H-pyrazol-1-yl)piperidin-1-yl)methyl)phenyl)amino)pyrimidin-4-yl)amino)isoindolin-2-yl)piperidine-2,6-dione]",> 1000 nM,> 1000 nM,> 1000 nM,> 1000 nM,,,,
"O=C1CCC(N2Cc3c(Nc4ccnc(Nc5ccc(CN6CCC(n7cc(-c8cnc9cccc(Br)c9n8)cn7)CC6)cc5)n4)cccc3C2=O)C(=O)N1 (centres unmarked) [GS-030, 3-(4-((2-((4-((4-(4-(8-Bromoquinoxalin-2-yl)-1H-pyrazol-1-yl)piperidin-1-yl)methyl)phenyl)amino)pyrimidin-4-yl)amino)-1-oxoisoindolin-2-yl)piperidine-2,6-dione]",> 1000 nM,> 1000 nM,> 1000 nM,> 1000 nM,,,,
"O=C1CCC(N2Cc3c(Nc4ccnc(Nc5ccc(CN6CCC(n7cc(-c8cnc9ccccc9n8)cn7)CC6)cc5)n4)cccc3C2=O)C(=O)N1 (centres unmarked) [GS-031, 3-(1-Oxo-4-((2-((4-((4-(4-(quinoxalin-2-yl)-1H-pyrazol-1-yl)piperidin-1-yl)methyl)phenyl)amino)pyrimidin-4-yl)amino)isoindolin-2-yl)piperidine-2,6-dione]",10 to 100 nM,< 10 nM,10 to 100 nM,10 to 100 nM,,,,
"O=C1CCC(N2C(=O)c3ccc(NCCCCCC(=O)N4CCC(n5cc(-c6cnc7cccc(N8CCOCC8)c7n6)cn5)CC4)cc3C2=O)C(=O)N1 (centres unmarked) [GS-034, 2-(2,6-Dioxopiperidin-3-yl)-5-((6-(4-(4-(8-morpholinoquinoxalin-2-yl)-1H-pyrazol-1-yl)piperidin-1-yl)-6-oxohexyl)amino)isoindoline-1,3-dione]",100 to 1000 nM,< 10 nM,> 1000 nM,< 10 nM,,,,
"O=C1CCC(N2C(=O)c3ccc(NCCCCCC(=O)N4CCC(n5cc(-c6cnc7cccc(N8CCNCC8)c7n6)cn5)CC4)cc3C2=O)C(=O)N1 (centres unmarked) [GS-035, 2-(2,6-Dioxopiperidin-3-yl)-5-((6-oxo-6-(4-(4-(8-(piperazin-1-yl)quinoxalin-2-yl)-1H-pyrazol-1-yl)piperidin-1-yl)hexyl)amino)isoindoline-1,3-dione]",10 to 100 nM,< 10 nM,> 1000 nM,< 10 nM,,,,
"CN1CCN(c2cccc3ncc(-c4cnn(C5CCN(C(=O)CCCCCNc6ccc7c(c6)C(=O)N(C6CCC(=O)NC6=O)C7=O)CC5)c4)nc23)CC1 (centres unmarked) [GS-036, 2-(2,6-Dioxopiperidin-3-yl)-5-((6-(4-(4-(8-(4-methylpiperazin-1-yl)quinoxalin-2-yl)-1H-pyrazol-1-yl)piperidin-1-yl)-6-oxohexyl)amino)isoindoline-1,3-dione]",> 1000 nM,< 10 nM,> 1000 nM,10 to 100 nM,,,,
"O=C1CCC(N2C(=O)c3ccc(NCCCCCC(=O)N4CCC(n5cc(-c6cnc7cccc(C8CCOCC8)c7n6)cn5)CC4)cc3C2=O)C(=O)N1 (centres unmarked) [GS-043, 2-(2,6-Dioxopiperidin-3-yl)-5-((6-oxo-6-(4-(4-(8-(tetrahydro-2H-pyran-4-yl)quinoxalin-2-yl)-1H-pyrazol-1-yl)piperidin-1-yl)hexyl)amino)isoindoline-1,3-dione]",10 to 100 nM,< 10 nM,10 to 100 nM,< 10 nM,,,,
"O=C1CCC(N2C(=O)c3ccc(NCCCCCC(=O)N4CCC(n5cc(-c6cnc7cccc(C8CCNCC8)c7n6)cn5)CC4)cc3C2=O)C(=O)N1 (centres unmarked) [GS-044, 2-(2,6-dioxopiperidin-3-yl)-5-((6-oxo-6-(4-(4-(8-(piperidin-4-yl)quinoxalin-2-yl)-1H-pyrazol-1-yl)piperidin-1-yl)hexyl)amino)isoindoline-1,3-dione]",10 to 100 nM,< 10 nM,10 to 100 nM,< 10 nM,,,,
"CN1CCC(c2cccc3ncc(-c4cnn(C5CCN(C(=O)CCCCCNc6ccc7c(c6)C(=O)N(C6CCC(=O)NC6=O)C7=O)CC5)c4)nc23)CC1 (centres unmarked) [GS-045, 2-(2,6-Dioxopiperidin-3-yl)-5-((6-(4-(4-(8-(1-methylpiperidin-4-yl)quinoxalin-2-yl)-1H-pyrazol-1-yl)piperidin-1-yl)-6-oxohexyl)amino)isoindoline-1,3-dione]",100 to 1000 nM,< 10 nM,> 1000 nM,< 10 nM,,,,
"CN1CCN(c2cnn(C3CCN(C(=O)CCCCCNc4ccc5c(c4)C(=O)N(C4CCC(=O)NC4=O)C5=O)CC3)c2)CC1 (centres unmarked) [GS-046, 2-(2,6-Dioxopiperidin-3-yl)-5-((6-(4-(4-(4-methylpiperazin-1-yl)-1H-pyrazol-1-yl)piperidin-1-yl)-6-oxohexyl)amino)isoindoline-1,3-dione]",> 1000 nM,10 to 100 nM,100 to 1000 nM,10 to 100 nM,,,,
"O=C1CCC(N2C(=O)c3ccc(NCCCCCC(=O)N4CCC(n5cc(N6CCOCC6)cn5)CC4)cc3C2=O)C(=O)N1 (centres unmarked) [GS-047, 2-(2,6-Dioxopiperidin-3-yl)-5-((6-(4-(4-morpholino-1H-pyrazol-1-yl)piperidin-1-yl)-6-oxohexyl)amino)isoindoline-1,3-dione]",100 to 1000 nM,10 to 100 nM,100 to 1000 nM,10 to 100 nM,,,,
"O=C1CCC(N2C(=O)c3ccc(NCCCCCC(=O)N4CCC(n5cc(N6CCCCC6)cn5)CC4)cc3C2=O)C(=O)N1 (centres unmarked) [GS-048, 2-(2,6-Dioxopiperidin-3-yl)-5-((6-oxo-6-(4-(4-(piperidin-1-yl)-1H-pyrazol-1-yl)piperidin-1-yl)hexyl)amino)isoindoline-1,3-dione]",10 to 100 nM,< 10 nM,100 to 1000 nM,10 to 100 nM,,,,
"O=C1CCC(N2C(=O)c3ccc(NCCCCCC(=O)N4CCC(n5cc(C6CCCCC6)cn5)CC4)cc3C2=O)C(=O)N1 (centres unmarked) [GS-049, 5-((6-(4-(4-Cyclohexyl-1H-pyrazol-1-yl)piperidin-1-yl)-6-oxohexyl)amino)-2-(2,6-dioxopiperidin-3-yl)isoindoline-1,3-dione]",10 to 100 nM,10 to 100 nM,10 to 100 nM,< 10 nM,,,,
"O=C1CCC(N2C(=O)c3ccc(NCCCCCC(=O)N4CCC(n5cc(-c6ccccc6)cn5)CC4)cc3C2=O)C(=O)N1 (centres unmarked) [GS-050, 2-(2,6-Dioxopiperidin-3-yl)-5-((6-oxo-6-(4-(4-phenyl-1H-pyrazol-1-yl)piperidin-1-yl)hexyl)amino)isoindoline-1,3-dione]",,,,,< 10 nM,< 10 nM,10 to 100 nM,< 10 nM
"O=C1CCC(N2C(=O)c3ccc(NCCCCCC(=O)N4CCC(n5cc(-c6ncccn6)cn5)CC4)cc3C2=O)C(=O)N1 (centres unmarked) [GS-051, 2-(2,6-Dioxopiperidin-3-yl)-5-((6-oxo-6-(4-(4-(pyrimidin-2-yl)-1H-pyrazol-1-yl)piperidin-1-yl)hexyl)amino)isoindoline-1,3-dione]",10 to 100 nM,< 10 nM,100 to 1000 nM,10 to 100 nM,,,,
"O=C1CCC(N2C(=O)c3ccc(NCCCCCC(=O)N4CCC(n5cc(-c6ccc7cccc(Br)c7n6)cn5)CC4)cc3C2=O)C(=O)N1 (centres unmarked) [GS-052, 5-((6-(4-(4-(8-Bromoquinolin-2-yl)-1H-pyrazol-1-yl)piperidin-1-yl)-6-oxohexyl)amino)-2-(2,6-dioxopiperidin-3-yl)isoindoline-1,3-dione]",100 to 1000 nM,< 10 nM,> 1000 nM,< 10 nM,,,,
